Patent US6924288B2, “Enantiomerically pure opioid diarylmethylpiperzine and methods of using same” (priority 2001, dated 2005)

Key:
[1] = biological target: T1, Delta receptor, mouse vas deferens (Mus musculus, UniProt P32300); experiment: Mouse vas deferens, inhibition of electrically induced contractions, delta; assay type: cell-based; conditions: read-out: Mouse Vas Deferens ED50 (nM) δ
T1 construct: Mouse vasa deferentia (MVD), CD-1 strain, Harlan, Raleigh, N.C.) were removed from mice; tissue Harlan, Raleigh, N.C; (animals); host or cells: mouse vas deferens, CD-1 strain
T1 sequence (P32300 whole entry): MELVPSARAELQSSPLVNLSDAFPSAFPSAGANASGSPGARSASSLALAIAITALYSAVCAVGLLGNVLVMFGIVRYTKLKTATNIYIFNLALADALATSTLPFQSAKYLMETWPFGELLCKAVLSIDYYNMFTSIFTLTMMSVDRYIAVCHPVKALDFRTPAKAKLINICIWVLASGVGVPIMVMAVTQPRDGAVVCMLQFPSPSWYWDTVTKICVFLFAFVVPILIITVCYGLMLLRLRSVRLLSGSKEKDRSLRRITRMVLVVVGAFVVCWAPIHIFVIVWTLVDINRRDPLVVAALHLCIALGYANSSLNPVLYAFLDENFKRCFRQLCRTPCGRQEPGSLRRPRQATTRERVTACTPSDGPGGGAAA
Method: The compound of formula (I) and compounds 1, 3, 4, 5 and 6 as identified above, were evaluated for in vitro opioid receptor activity in various receptor systems, including mouse vas deferens (Mouse Vas Deferens ED50), and guinea pig ileum (Guinea Pig Ileum ED50). The assay procedures used for such determinations of receptor activity are set out below.
In vitro bioassays: Mouse vasa deferentia (MVD), CD-1 strain, Harlan, Raleigh, N.C.) were removed from mice and suspended between platinum electrodes with 0.5 g of tension in organ bath chambers containing a modified Mg^++ free Krebs buffer of the following composition (millimolar): NaCl, 117.5; KCl, 4.75; CaCl2, 2.6; KH2PO4, 1.20; NaHCO3, 24.5; and glucose, 11. The buffer was saturated with 95% O2/5% CO2 and kept at 37° C. Tissues were stimulated at supramaximal voltage with 10-Hz pulse trains for 400-msec.; train interval 10 seconds; and 1.0 msec pulse duration at maximal voltage. Delta receptor activity was determined by adding appropriate concentrations of test compound to organ baths and allowing a maximal response before addition of the next higher concentration.
The ED50 values were extrapolated from curves showing the dose concentration plotted against the response (J. A. H. Lord, A. A. Waterfield, J. Hughes, H. W. Kosterlitz, Nature 267, 495, (1977)).

rats = experiment: Tail pinch test for analgesia in rats; assay type: in vivo; conditions: rat; for Analgesia (delay of response to tail pinch): 0.30 mg/kg i.v., cutoff 20 sec
Method: Analgesia was assayed in rats using the tail pinch test with simultaneous monitoring of capillary blood gases (pCO2). During this testing period respiratory depression values were also obtained. Male rats (Wistar Hannover 200-300 g) were anesthetized with 2% isoflurane (J. A. Webster, Inc., Sterling, Mass. The femoral artery was cannulated with PE50 tubing for blood sampling. The external jugular vein was also cannulated with Silastic tubing for drug injection. After surgery, anesthetic gases were removed and the rat was allowed to rest in a plastic restrainer for 60 minutes to establish baseline values of blood gases.
The compounds 1-6 were administered intravenous. Nociceptive response and respiratory values were obtained for a 1-2 hour period. The femoral artery cannulation was used to draw arterial blood into a syringe pre-wetted with heparin. Samples were then analyzed with a blood gas analyzer (Ph/Gas Analyzer Synthesis 25 Model, Instrumentation Laboratory) to assess respiratory depression effects. The volume of blood taken each time was 0.15 cc. The syringes were capped immediately and the blood gases analyzed within 5 minutes. The blood exposed to air at the tip of the syringe was expelled. The blood was mixed by gentle inversion and an aliquots of 0.10 cc was injected into the blood gas analyzer.
An artery clamp was placed on the tail (one inch from the tip of the tail) for a short duration until an escape response occurred (i.e. tail-flick or vocalization). The escape response latency was recorded by means of a stopwatch. A cutoff time of 20 sec. was used to prevent unnecessary tissue damage. […] The elapsed time to elicit a pain response was recorded as the tail pinch latency in seconds. Blood gases were monitored at approximately the same time points as the tail pinch test.
The ED50 values for analgesia potency and respiratory depression were determined to calculate the safety or therapeutic ratio, which is defined as the respiratory depression ED50 divided by analgesia ED50.

With `C=CCN1C[C@H](C)N([C@H](c2ccsc2)c2cccc(O)c2)C[C@H]1C` [Compound 2, (−)3-((S)-((2S,5R)-4-allyl-2,5-dimethyl-1-piperazinyl)(3-thienyl)methyl)phenol] the EC50 [1] was 14.2 nM, the “Analgesia (delay of response to tail pinch)” value (“Analgesia” below) (rats; 4 min.) was 20 s and the “Analgesia” value (rats; 8 min.) was 20 s. The “Analgesia” value (rats; 32 min.) was 12.3 s, the “Analgesic effect in words” value (rats; i.v., tail pinch, FIGS. 1-6) was “safely maintains analgesia for an extended time” and the ED50 (rats; intravenous, tail pinch, 20 sec cutoff) was 0.046 mg/kg.
